The source made the active and inactive calls.
What was measured:
[1] = target: T1, Long-chain-fatty-acid--AMP ligase FadD28 (Mycobacterium tuberculosis, UniProt P9WQ59); assay: Fluorescence polarization aasay to screen for inhibitors that compete for the binding of FadD28 to a bisubstrate Measured in Biochemical System Using Plate Reader - 2147-01_Inhibitor_Dose_CherryPick_Activity.; format: functional, Mycobacterium tuberculosis H37Rv
T1 sequence (P9WQ59 whole entry): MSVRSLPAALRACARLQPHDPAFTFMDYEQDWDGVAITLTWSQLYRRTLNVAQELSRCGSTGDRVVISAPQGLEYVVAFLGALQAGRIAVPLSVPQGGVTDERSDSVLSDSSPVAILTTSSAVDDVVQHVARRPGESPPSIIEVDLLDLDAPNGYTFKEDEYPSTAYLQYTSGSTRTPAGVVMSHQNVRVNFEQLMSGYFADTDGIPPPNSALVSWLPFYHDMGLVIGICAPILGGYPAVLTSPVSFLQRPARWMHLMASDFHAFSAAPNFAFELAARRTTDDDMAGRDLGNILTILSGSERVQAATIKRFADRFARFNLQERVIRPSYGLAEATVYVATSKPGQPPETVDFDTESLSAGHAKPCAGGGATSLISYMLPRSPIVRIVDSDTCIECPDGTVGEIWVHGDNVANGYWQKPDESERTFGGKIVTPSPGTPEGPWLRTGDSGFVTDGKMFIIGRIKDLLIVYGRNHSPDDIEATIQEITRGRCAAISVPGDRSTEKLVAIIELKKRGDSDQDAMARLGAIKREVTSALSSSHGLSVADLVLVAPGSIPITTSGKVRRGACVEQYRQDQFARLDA

[2] = CEM21 lymphoblast cell cytotoxicity, dose response, cytotoxicity control for viral fusion inhibitor project, CellTiter-Glo luminescence, cherry-picked (AID 652042); format: functional, cell-based;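 also: potency for signal decrease meaning cytotoxicity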
[3] = ZM109 Env clade C HIV-1 fusion inhibitors, dose response, HeLa effector, CEM target cells, luciferase, cherry-pick (AID 652058); format: functional, cell-based
[4] = inhibitors of HIV Env-driven cell fusion, dose response, cherry-pick (AID 652057); format: functional, cell-based
[5] = off-target signal loss in HeLa-CEM21 co-culture – HeLa F-luc CTL cells, cherry-picked, counter-screen for HIV-1 Env fusion inhibitor project, dose response (AID 652040); format: functional, cell-based;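 also: potency for signal decrease marking cytotoxic or nonspecific inhibition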
[6] = target: T2, Sentrin-specific protease 8 (Homo sapiens, UniProt Q96LD8); format: functional
T2 sequence (Q96LD8 whole entry): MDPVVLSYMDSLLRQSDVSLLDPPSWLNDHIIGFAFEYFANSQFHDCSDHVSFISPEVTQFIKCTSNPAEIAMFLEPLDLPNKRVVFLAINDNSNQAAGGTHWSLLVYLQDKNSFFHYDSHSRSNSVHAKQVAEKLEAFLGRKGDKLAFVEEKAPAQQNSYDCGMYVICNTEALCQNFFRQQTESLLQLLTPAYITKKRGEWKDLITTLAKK

[7] = target: T2, Sentrin-specific protease 8; format: functional; remark: listed apart in the source
[8] = target: T3, Rac GTPase-activating protein 1 (Homo sapiens, UniProt Q9H0H5); assay: MgcRacGAP GTPase-activating activity inhibitors, confirmation, biochemical, ADP Hunter fluorescence, primary and confirmatory (AID 624330); format: functional
T3 sequence (Q9H0H5 whole entry): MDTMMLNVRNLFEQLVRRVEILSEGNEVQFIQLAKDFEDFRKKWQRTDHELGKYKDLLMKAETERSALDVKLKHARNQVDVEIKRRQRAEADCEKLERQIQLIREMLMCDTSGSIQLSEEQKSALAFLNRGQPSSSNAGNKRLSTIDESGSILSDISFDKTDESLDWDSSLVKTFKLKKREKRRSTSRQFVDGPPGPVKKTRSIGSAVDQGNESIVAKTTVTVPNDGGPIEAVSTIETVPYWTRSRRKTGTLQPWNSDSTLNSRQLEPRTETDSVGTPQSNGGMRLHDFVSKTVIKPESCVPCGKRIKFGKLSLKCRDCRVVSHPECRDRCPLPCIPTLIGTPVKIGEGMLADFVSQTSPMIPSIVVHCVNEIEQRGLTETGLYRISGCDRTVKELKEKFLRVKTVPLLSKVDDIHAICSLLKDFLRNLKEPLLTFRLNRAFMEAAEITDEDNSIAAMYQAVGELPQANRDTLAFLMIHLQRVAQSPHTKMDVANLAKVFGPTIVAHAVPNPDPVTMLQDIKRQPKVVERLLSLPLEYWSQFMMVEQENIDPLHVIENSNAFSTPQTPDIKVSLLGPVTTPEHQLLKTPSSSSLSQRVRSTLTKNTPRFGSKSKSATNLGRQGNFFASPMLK

[9] = HeLa cell cytotoxicity, dose response, cytotoxicity control for MgcRacGAP inhibitor project (AID 624300); format: functional
[10] = target: Albumin (Bos taurus, UniProt P02769); assay: Counterscreen for inhibitors of T-cell receptor (TCR)-CD3 interaction: Fluorescence-based biochemical high throughput dose response assay to identify inhibitors of T-cell receptor (TCR)-CD3 interaction using a TAMRA-labeled BSA probe.; format: functional
Albumin, sequence (P02769 whole entry): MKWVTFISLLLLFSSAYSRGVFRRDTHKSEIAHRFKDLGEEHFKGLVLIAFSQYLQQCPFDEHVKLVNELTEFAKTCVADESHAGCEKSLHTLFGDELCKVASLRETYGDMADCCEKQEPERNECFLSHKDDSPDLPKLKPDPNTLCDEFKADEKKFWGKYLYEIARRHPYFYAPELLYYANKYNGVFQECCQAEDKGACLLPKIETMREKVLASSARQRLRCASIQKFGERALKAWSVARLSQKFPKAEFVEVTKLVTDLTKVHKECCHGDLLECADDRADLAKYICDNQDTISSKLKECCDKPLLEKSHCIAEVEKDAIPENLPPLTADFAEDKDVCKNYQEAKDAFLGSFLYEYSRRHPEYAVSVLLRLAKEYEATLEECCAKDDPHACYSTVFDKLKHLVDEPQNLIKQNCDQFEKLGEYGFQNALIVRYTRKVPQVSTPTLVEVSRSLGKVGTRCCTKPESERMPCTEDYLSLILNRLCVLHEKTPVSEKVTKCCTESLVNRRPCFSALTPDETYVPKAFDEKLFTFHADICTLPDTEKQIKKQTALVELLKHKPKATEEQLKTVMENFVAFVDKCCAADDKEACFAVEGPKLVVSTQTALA

[11] = target: T4, Protein skinhead-1 (Caenorhabditis elegans, UniProt P34707); format: functional
T4 sequence (P34707 whole entry): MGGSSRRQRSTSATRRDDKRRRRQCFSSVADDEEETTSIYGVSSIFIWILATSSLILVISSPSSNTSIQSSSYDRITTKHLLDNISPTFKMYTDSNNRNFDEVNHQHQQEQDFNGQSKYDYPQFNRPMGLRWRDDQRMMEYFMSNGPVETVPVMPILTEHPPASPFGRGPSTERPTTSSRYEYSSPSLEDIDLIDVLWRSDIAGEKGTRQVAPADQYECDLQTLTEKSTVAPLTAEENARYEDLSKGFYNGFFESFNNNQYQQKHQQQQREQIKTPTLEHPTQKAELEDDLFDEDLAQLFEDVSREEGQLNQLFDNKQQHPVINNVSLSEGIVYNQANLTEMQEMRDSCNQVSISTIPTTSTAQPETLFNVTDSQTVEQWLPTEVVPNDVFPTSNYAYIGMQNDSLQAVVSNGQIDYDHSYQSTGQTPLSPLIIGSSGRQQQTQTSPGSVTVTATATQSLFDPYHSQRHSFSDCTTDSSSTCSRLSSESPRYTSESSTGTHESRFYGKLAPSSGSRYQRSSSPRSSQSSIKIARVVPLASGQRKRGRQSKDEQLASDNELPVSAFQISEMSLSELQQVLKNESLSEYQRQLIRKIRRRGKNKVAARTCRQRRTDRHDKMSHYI

[12] = Counterscreen for activators of the function of SWI/SNF related, matrix associated, actin dependent regulator of chromatin, subfamily a, member 2 (SMARCA2, BRM): Luminescence-based cell-based high throughput dose response assay to identify non-selective compounds using the VP16 reporter assay.; format: functional
[13] = target: SWI/SNF-related matrix-associated actin-dependent regulator of chromatin subfamily A member 2 (Homo sapiens, UniProt P51531); assay: Luminescence-based cell-based high throughput dose response assay to identify activators of the function of SWI/SNF related, matrix associated, actin dependent regulator of chromatin, subfamily a, member 2 (SMARCA2, BRM).; format: functional
SWI/SNF-related matrix-associated actin-dependent regulator of chromatin subfamily A member 2, sequence (P51531 whole entry): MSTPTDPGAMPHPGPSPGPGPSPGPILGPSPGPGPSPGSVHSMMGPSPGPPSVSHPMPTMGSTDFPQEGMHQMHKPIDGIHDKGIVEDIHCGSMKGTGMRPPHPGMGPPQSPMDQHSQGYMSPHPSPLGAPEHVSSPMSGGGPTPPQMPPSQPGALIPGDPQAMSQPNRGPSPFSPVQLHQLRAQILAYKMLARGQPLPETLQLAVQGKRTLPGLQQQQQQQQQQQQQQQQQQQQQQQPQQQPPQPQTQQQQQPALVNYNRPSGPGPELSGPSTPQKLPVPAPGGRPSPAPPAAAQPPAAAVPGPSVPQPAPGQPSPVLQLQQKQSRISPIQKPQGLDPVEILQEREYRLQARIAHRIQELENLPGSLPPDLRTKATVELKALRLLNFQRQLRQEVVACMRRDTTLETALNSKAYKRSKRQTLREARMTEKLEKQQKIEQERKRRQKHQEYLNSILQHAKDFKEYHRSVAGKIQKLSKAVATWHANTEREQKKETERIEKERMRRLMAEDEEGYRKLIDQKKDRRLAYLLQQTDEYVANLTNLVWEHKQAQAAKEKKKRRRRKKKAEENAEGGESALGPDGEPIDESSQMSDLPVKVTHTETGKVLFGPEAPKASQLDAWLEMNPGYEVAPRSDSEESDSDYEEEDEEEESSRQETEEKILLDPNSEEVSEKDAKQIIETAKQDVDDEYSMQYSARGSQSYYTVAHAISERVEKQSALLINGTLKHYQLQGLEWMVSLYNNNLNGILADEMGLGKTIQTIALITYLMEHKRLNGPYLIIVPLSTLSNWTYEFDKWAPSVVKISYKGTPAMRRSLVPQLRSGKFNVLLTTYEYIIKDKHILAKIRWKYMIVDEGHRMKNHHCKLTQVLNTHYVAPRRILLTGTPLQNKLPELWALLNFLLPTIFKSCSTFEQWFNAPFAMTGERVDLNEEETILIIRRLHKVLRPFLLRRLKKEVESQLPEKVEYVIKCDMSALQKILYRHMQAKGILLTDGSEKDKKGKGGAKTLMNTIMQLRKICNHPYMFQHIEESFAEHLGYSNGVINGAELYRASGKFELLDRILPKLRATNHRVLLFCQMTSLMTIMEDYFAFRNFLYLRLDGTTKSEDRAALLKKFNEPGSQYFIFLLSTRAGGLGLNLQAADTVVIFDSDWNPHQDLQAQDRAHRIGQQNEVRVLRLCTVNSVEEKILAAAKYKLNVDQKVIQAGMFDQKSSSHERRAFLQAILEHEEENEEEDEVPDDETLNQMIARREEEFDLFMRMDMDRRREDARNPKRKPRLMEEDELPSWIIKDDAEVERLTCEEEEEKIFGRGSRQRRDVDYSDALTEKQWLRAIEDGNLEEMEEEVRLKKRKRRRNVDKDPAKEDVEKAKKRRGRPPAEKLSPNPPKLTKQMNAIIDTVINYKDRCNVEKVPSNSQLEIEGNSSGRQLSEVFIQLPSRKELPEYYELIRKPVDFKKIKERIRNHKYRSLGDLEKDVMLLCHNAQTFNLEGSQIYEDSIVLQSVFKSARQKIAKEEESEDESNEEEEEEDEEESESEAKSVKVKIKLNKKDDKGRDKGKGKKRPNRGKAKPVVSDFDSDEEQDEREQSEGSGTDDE

[14] = target: T5, Nuclear receptor subfamily 0 group B member 1 (Homo sapiens, UniProt P51843); format: functional, cell-based;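 also: HEK293T cells transfected with SF-1 and DAX-1 plus StAR promoter luciferase reporter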
T5 sequence (P51843 whole entry): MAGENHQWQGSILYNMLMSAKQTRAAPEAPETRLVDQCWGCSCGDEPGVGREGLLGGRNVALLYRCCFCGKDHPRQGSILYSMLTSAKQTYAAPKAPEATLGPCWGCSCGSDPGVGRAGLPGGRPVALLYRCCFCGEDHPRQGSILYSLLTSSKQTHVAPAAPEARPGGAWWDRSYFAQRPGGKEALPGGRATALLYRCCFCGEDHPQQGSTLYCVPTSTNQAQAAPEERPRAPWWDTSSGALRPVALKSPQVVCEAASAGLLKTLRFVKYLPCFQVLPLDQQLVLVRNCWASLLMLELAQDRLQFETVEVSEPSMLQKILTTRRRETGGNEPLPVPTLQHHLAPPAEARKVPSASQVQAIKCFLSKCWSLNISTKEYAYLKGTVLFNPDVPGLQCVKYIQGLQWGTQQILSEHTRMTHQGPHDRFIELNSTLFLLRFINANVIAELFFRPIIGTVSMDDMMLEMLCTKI

[15] = cells; format: functional, cell-based
[16] = target: T6, Hepatocyte nuclear factor 4-alpha (Homo sapiens, UniProt P41235); format: functional, cell-based;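 also: biochemical luminescence-based dose-response counterscreen measuring inhibition of HNF4 dimerization, run alongside a screen for blockers of ABHD5–perilipin-5 interaction; split luciferase complementation of HNF4 fusion proteins in cell lysate measuring dimerization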
T6 sequence (P41235 whole entry): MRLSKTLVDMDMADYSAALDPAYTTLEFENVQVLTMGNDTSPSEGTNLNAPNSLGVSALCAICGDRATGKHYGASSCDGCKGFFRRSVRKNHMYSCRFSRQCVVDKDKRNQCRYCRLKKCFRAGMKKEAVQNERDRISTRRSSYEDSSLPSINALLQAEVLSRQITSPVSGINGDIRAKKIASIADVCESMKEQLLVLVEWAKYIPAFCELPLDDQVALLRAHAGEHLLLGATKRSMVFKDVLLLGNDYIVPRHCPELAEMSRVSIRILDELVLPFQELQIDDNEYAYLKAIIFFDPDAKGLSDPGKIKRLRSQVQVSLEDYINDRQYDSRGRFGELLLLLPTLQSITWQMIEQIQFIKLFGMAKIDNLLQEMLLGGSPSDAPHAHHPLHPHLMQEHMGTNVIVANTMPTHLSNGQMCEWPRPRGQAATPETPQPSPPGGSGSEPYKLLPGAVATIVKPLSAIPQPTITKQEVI

[17] = miR-122 activators in hepatoma reporter cells, dose response, cell-based, Huh7 psiCHECK-miR122, Renilla luciferase, cherry-picked (AID 651956); format: functional;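 also: huh7 hepatoma cells stably carrying a psiCHECK-2 miR-122 sensor plasmid; renilla luciferase signal reporting endogenous miR-122 activity after 48 h compound exposure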
[18] = HEK293T cytotoxicity, dose response, cytotoxicity control for miR-122 modulator project, cell-based, activator set, cherry-pick (AID 720690); format: functional;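 also: HEK293T human cells scored for general mammalian cytotoxicity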
[19] = inhibitors of clade B AD8 Env fusion, dose response, cell-based, cherry-pick (AID 652062); format: functional;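 also: luciferase signal from cell-cell fusion driven by HIV-1 clade B AD8 Env; potency is for inhibitors of fusion seen as a drop in luminescence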
[20] = HEK293T cytotoxicity, dose response, cytotoxicity control for miR-122 modulator project, cell-based, inhibitor set, cherry-pick, set 2 (AID 720697); format: functional
[21] = HepG2 cell cytotoxicity, dose response, cytotoxicity control, cherry-picked samples (AID 1159577); format: functional, cell-based
[22] = P. falciparum Dd2 growth inhibitors, dose response, SYBR Green, cherry-picked samples (AID 1159567); format: functional, cell-based
[23] = NIH-3T3 fibroblast cytotoxicity, dose response, cytotoxicity control, cell-based, fluorescence, Alamar Blue, secondary assay (AID 2327); format: functional;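 also: NIH-3T3 mouse fibroblasts cultured with fluconazole at 8 µg/mL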
[24] = C. albicans growth with fluconazole, confirmation, fluorescence, retest (AID 2467); format: functional, cell-based
[25] = target: DNA (cytosine-5)-methyltransferase 1 (Homo sapiens, UniProt P26358); assay: DNMT1 methyltransferase inhibitors, confirmation, biochemical, fluorescent molecular beacon (AID 602386); format: functional
DNA (cytosine-5)-methyltransferase 1, sequence (P26358 whole entry): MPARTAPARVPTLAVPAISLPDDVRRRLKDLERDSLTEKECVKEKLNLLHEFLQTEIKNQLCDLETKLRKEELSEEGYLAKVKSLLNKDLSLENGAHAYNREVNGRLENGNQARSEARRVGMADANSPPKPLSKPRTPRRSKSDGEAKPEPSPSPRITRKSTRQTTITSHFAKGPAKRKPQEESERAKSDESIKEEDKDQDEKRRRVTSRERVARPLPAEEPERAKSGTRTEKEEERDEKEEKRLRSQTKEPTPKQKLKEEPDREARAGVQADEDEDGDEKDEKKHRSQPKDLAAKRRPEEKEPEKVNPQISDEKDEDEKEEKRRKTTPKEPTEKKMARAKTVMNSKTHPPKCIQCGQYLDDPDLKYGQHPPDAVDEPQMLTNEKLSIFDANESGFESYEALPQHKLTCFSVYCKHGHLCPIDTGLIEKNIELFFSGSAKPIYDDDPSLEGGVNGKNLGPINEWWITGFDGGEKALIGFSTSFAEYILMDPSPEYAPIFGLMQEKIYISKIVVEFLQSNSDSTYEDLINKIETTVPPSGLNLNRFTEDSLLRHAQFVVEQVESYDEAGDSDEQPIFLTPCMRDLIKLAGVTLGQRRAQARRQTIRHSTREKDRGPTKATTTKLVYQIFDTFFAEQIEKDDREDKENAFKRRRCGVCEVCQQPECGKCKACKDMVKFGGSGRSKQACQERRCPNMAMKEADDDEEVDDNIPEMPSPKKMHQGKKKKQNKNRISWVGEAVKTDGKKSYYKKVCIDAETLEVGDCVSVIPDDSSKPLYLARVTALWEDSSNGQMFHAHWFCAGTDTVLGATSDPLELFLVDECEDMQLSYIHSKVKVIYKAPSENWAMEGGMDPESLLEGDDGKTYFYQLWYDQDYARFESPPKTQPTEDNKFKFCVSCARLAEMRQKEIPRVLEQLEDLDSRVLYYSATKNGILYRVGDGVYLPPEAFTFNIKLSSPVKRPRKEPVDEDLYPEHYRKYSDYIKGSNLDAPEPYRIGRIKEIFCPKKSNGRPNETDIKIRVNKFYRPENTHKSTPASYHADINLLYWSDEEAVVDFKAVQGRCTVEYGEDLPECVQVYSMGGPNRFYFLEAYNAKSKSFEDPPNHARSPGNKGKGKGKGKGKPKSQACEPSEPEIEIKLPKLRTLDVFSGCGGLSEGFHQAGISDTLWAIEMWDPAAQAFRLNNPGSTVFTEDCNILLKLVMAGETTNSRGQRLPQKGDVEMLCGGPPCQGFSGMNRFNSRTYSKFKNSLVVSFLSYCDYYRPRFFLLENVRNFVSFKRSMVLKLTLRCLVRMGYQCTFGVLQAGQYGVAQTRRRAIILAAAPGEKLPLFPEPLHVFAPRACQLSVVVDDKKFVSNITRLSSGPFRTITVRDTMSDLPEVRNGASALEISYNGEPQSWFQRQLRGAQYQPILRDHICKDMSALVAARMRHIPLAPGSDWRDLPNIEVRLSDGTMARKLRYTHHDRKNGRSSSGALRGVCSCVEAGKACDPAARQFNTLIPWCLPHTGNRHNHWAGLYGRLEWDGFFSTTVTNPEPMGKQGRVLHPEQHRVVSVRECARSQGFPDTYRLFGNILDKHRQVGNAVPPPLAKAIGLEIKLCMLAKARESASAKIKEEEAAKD

With O=C(CN1C(=O)S/C(=C\c2cccs2)C1=O)Nc1ccc(O)cc1C(=O)O the AC50 [1] was 94.3 µM (active).

For Cc1ccc2c(C)nc(Nc3nc(O)cc(CSc4nnnn4-c4ccccc4)n3)nc2c1, the AC50 [2] was 25.2 µM (active), the AC50 [3] was 12.5 µM (active) and the AC50 [4] was 20.5 µM (active). For the same molecule, the AC50 [5] was 25.3 µM (active).

With O=C(O)/C=C/C(=O)Nc1ccc(O)cc1 the IC50 [6] was 16.2 µM (active) and the IC50 [7] was 10.6 µM (active).

With c1ccc(Nc2cc(Nc3ccccc3)[nH]n2)cc1 the IC50 [8] was 50.9 µM (active) and the CC50 [9] was 100 µM (active).

For O=C(NNC(=S)NC(=O)c1cccnc1)c1ccc(F)cc1, the IC50 [10] was > 94.1 µM (inactive).

In the case of CC1CCCCN1Cc1c(O)ccc2c(O)c(-c3nc4ccccc4s3)c(=N)oc12 (stereo not drawn), the CC50 [9] was 93.1 µM (active) and the IC50 [11] was 4.74 µM (active).

With COc1ccccc1NS(=O)(=O)c1cc(NC(=O)/C=C/c2cccs2)ccc1N1CCOCC1 the EC50 [12] was > 91.2 µM (inactive) and the EC50 [13] was > 91.2 µM (inactive).

For COc1ccc(C(=O)NCCS(=O)(=O)NCCc2ccccc2)cc1, the IC50 [14] was > 67.5 µM (inactive) and the IC50 [15] was > 67.5 µM (inactive).

For CCOC(=O)NC1CCc2cc(OC)c(OC)c(OC)c2-c2ccc(SC)c(=O)cc21 (stereo not drawn), the IC50 [14] was > 0.0309 µM (active) and the IC50 [15] was > 67.5 µM (inactive).

In the case of Cc1ccc(S(=O)(=O)N2[C@@H](c3cccc(Cl)c3)C(C(=O)O)=CC[C@H]2c2cccc(C)c2)cc1, the AC50 [1] was 48.3 µM (active).

With Cc1cccc(C)c1OCc1cn(CC(=O)c2ccc(O)cc2)nn1 the IC50 [16] was 4.78 µM (active).

For C[C@H]1CN([C@@H](C)CO)C(=O)c2cc(NC(=O)Nc3ccc(C(F)(F)F)cc3)ccc2O[C@H]1CN(C)CC1CCCCC1, the AC50 [17] was 8.8 µM (active) and the AC50 [18] was 18.7 µM (active).

In the case of CCCCCNC(=O)C(c1ccc(OC)cc1)n1c(=O)c(-c2ccco2)nc2ccccc21 (stereo not drawn), the IC50 [16] was 3.07 µM (active).

For C[C@H](CO)N1C[C@H](C)[C@H](CN(C)S(=O)(=O)c2ccccc2)Oc2ccc(NC(=O)NC3CCCCC3)cc2CC1=O, the AC50 [2] was 46.9 µM (active), the AC50 [3] was 0.98 µM (active) and the AC50 [19] was 4.13 µM (active). The AC50 [4] was 1.59 µM (active) and the AC50 [5] was 2.01 µM (active).

With Cc1cccc(-c2ccc([C@@H]3[C@H](CO)N4CCCCN(CCC(F)(F)F)C[C@@H]34)cc2)c1 the AC50 [20] was 28.8 µM (active), the AC50 [17] was 14.9 µM (active) and the AC50 [21] was 10.7 µM (active). For the same molecule, the AC50 [18] was 17.7 µM (active) and the AC50 [22] was 0.978 µM (active).

In the case of COc1cccc(C(=O)NNC(=O)c2ccc3ccccc3c2O)c1, the IC50 [10] was > 94.1 µM (inactive), the EC50 [23] was > 150 µM (inconclusive) and the EC50 [24] was > 38 µM (not active).

In the case of COc1cc2cc(Oc3ccc4ccc(=O)oc4c3)c(=O)oc2cc1O[C@@H]1O[C@H](CO)[C@@H](O)[C@H](O)[C@H]1O [DAPHNORIN], the AC50 [1] was 87.2 µM (active) and the IC50 [25] was 7.56 µM (active).
